From patent US20260308186A1, “STAT DEGRADERS AND USES THEREOF” (Recludix Pharma, Inc., priority 2023, published 2026)
Read-outs that look alike come from different tables or passages of the source.

What was measured:
STAT3 = molecular target: T1, STAT3 (Homo sapiens, UniProt P40763); assay: STAT3 Fluorescence Polarization (FP) Assay; assay type: binding
T1 construct: Recombinant STAT3 protein (STAT3(G127-1722))

pSTAT6 = molecular target: T2, pSTAT6 (Homo sapiens, UniProt P42226); assay: MSD-pSTAT-PBMC Assay, pSTAT6 (IL-4 stimulated PBMC); assay type: cell-based
T2 construct: pY641-STAT6 MSD read-out
T2 sequence (P42226 1-847): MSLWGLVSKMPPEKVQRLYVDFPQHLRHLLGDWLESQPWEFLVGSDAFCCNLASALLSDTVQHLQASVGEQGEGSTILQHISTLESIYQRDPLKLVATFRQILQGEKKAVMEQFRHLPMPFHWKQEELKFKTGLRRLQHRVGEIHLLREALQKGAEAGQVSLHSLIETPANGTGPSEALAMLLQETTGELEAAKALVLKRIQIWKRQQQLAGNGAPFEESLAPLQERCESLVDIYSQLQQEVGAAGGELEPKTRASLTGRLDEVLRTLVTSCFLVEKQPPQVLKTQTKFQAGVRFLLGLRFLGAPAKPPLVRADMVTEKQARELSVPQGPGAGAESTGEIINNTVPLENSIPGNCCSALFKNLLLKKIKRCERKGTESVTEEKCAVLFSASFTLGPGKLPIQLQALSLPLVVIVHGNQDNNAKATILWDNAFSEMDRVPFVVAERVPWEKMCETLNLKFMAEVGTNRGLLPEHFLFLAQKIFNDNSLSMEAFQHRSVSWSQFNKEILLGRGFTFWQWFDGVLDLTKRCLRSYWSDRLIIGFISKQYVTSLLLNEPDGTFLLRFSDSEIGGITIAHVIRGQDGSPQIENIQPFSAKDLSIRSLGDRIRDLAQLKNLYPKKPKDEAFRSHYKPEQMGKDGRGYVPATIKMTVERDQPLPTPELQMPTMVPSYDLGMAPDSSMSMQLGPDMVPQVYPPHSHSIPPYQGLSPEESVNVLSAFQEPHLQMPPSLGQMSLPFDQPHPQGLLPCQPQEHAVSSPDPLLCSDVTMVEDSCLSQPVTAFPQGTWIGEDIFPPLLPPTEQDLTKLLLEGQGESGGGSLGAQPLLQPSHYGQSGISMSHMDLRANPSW
How it was run: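 Human PBMC were recovered overnight, treated 3 h with compound, then stimulated for 10 min with 10 ng/mL IL-6 (pSTAT3) or 1 ng/mL IL-4 (pSTAT6). Lysates were read by MSD sandwich immunoassay, with total STAT capture and pY705-STAT3 or pY641-STAT6 detection. Signal minus unstimulated wells was normalized to DMSO, and IC50 came from a variable-slope fit.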

STAT6 = molecular target: T3, STAT6 (Homo sapiens, UniProt P42226); assay: STAT6 Fluorescence Polarization (FP) Assay; assay type: binding
T3 construct: Recombinant STAT6 protein (STAT6(W123-T658))
T3 sequence (P42226 123-658): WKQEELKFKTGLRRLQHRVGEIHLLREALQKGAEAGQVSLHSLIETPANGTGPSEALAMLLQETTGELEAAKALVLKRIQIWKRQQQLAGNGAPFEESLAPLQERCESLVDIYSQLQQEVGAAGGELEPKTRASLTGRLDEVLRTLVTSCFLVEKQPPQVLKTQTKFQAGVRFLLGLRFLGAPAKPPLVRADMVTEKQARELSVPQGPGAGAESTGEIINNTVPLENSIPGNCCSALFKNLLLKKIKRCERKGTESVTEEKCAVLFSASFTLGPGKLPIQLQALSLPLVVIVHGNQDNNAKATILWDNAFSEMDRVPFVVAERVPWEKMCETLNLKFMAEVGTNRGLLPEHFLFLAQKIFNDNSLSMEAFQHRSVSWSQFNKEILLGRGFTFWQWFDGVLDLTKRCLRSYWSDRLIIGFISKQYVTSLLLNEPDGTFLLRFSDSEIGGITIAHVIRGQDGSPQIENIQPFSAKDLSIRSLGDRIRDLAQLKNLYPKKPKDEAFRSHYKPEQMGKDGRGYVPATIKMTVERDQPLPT
How it was run: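 STAT6(W123-T658) at 250 nM plus 2 nM 5-FAM phosphotyrosine peptide probe in HEPES pH 7.4 buffer with 2 mM DTT, 1% DMSO final. Polarization read after 45 min at room temperature. IC50 from nonlinear regression of mP against log concentration.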

pSTAT3 = molecular target: T4, pSTAT3 (Homo sapiens, UniProt P40763); assay: MSD-pSTAT-PBMC Assay, pSTAT3 (IL-6 stimulated PBMC); assay type: cell-based
T4 construct: pY705-STAT3 MSD read-out
T4 sequence (P40763 whole entry): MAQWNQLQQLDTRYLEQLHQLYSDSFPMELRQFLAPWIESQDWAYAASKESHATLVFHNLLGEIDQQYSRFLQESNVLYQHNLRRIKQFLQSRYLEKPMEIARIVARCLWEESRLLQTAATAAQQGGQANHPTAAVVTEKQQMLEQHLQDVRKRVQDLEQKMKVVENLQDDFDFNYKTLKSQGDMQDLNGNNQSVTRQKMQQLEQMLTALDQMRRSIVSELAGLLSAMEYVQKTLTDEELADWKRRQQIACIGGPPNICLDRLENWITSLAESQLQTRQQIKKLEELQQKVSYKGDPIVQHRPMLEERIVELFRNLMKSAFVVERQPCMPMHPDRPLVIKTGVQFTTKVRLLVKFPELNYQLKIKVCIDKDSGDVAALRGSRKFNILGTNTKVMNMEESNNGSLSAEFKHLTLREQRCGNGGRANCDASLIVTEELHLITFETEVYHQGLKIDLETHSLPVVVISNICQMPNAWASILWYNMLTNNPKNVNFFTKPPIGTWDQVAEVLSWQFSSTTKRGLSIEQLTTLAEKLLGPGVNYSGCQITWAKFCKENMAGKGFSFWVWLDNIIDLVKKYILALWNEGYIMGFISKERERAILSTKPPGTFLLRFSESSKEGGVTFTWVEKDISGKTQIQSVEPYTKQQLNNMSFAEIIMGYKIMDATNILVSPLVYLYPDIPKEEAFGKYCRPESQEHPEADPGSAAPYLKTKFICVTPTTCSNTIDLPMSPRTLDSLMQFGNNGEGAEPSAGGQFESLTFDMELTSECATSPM
Source text: Cryopreserved Peripheral Blood Mononuclear Cells (PBMC) are from AllCells. Recombinant Human IL-4 and IL-6 are from Peprotech. Mouse monoclonal anti-STAT3 antibody, rabbit monoclonal anti-pY705-STAT3 antibody, rabbit monoclonal Anti-pY641-STAT6 antibody, and lysis buffer are from Cell Signaling Technology (CST). Mouse monoclonal anti-STAT6 antibody is from BioLegend. Assay plates, blocker, and anti-rabbit secondary antibody are from Meso Scale Discovery (MSD).
Cryopreserved PBMCs were thawed out and allowed to recover overnight in IMDM+10% heat-inactivated FBS prior to plating 50,000 (STAT3) or 25,000 (STAT6) cells per well in 96-well U-bottom tissue culture plates. Cells were treated with compound for 3 hrs. then stimulated with 10 ng/mL IL-6 (STAT3) or 1 ng/mL IL-4 (STAT6) for 10 min. Cells were then spun down and washed with ice-cold PBS prior to lysing the cell pellet with 1× lysis buffer (CST) with 1×HALT protease and phosphatase inhibitor cocktail (Thermo). Lysates were transferred to and incubated overnight at 4° C. with shaking in QuickPlex 96-well high bind assay plates (MSD) pre-coated overnight with 30 μL per well of 0.6 μg/mL mouse monoclonal anti-STAT3 antibody (STAT3) or 2 μg/mL mouse monoclonal anti-STAT6 antibody (STAT6) in 1×PBS, and pre-blocked for 1 hour with 3% Blocker-A (MSD). Captured protein in the assay plates were then washed and probed with 25 μL per well of 0.25 μg/ml rabbit monoclonal anti-pY705-STAT3 antibody (STAT3) or 0.18 μg/ml rabbit monoclonal Anti-pY641-STAT6 antibody (STAT6) in 1% Blocker-A for 1 hour at room temperature with shaking, then washed and probed with 25 ul per well of 1 ug/ml Sulfo-TAG Labeled Goat Anti-Rabbit Antibody (MSD) in 1% Blocker-A for 1 hour at room temperature with shaking. Assay plates were then washed and 150 μL of 1× Read Buffer-T (MSD) was added to each well prior to reading on an SQ120 MSD Plate Reader. Assay signal from each sample was subtracted by the signal from unstimulated control wells and normalized to DMSO control wells. IC50 values were calculated using Graph Pad Prism Dose-Response Nonlinear Regression with variable slope. For both pSTAT3 and pSTAT6 A=≤100 nM; B=>100-1000 nM; C=>1000-3000 nM; and D=>3 μM.

[1] = read-out: pSTAT6 IC50, compound 3 hrs, then 1 ng/mL IL-4 for 10 min, pY641-STAT6
[2] = read-out: pSTAT3 IC50, compound 3 hrs, then 10 ng/mL IL-6 for 10 min, pY705-STAT3
[3] = recombinant STAT3 25 nM, probe 5-FAM-GpYLPQTV-NH2 2 nM, 45 min, room temperature, read-out: STAT3 FP IC50
[4] = compound 3 hrs, then 1 ng/mL IL-4 for 10 min, pY641-STAT6, read-out: pSTAT6 IC50
[5] = recombinant STAT6(W123-T658) 250 nM, probe 5-FAM-Ap[…]-NH2 2 nM, 45 min, room temperature, read-out: STAT6 FP IC50
[6] = compound 3 hrs, then 10 ng/mL IL-6 for 10 min, pY705-STAT3, read-out: pSTAT3 IC50

T1 sequence (P40763 127-722 limits assumed): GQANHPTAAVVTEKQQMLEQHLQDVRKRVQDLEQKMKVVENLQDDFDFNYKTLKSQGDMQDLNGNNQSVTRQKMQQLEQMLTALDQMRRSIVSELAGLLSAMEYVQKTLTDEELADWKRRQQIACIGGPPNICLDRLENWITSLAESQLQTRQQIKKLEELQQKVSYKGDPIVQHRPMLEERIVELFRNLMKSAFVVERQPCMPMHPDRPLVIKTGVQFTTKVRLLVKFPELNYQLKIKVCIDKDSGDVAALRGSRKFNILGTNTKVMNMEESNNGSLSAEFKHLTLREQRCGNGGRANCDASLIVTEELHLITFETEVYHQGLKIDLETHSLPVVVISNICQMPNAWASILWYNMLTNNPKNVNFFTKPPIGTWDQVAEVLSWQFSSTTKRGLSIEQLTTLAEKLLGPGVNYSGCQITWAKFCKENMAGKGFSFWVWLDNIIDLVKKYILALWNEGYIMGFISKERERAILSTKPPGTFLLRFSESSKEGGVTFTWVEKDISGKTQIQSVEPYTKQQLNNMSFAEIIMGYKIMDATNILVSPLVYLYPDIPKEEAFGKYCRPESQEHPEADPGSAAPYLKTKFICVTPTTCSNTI

| IC50 (STAT3; [3]) [µM] | IC50 (pSTAT6; [4]) [µM] | IC50 (STAT6; [5]) [µM] | IC50 (pSTAT3; [6]) [µM] | Compound | IC50 (STAT3) [µM] | IC50 (pSTAT6; [1]) [µM] | IC50 (STAT6) [µM] | IC50 (pSTAT3; [2]) [µM] |
| --- | --- | --- | --- | --- | --- | --- | --- | --- |
|  |  |  |  | CN(C(=O)[C@@H]1CC[C@@H]2CCN(C(=O)CCCCCC#Cc3cccc4c3CN(C3CCC(=O)NC3=O)C4=O)C[C@H](NC(=O)c3cc4cc(C(F)(F)P(=O)(O)O)ccc4[nH]3)C(=O)N21)c1ccccc1 (stereo partly drawn) [Compound 1, [(2-{[(5S,8S,10aR)-3-{8-[2-(2,6-dioxopiperidin-3-yl)-1-oxo-2,3-dihydro-1H-isoindol-4-yl]oct-7-ynoyl}-8-[methyl(phenyl)carbamoyl]-6-oxo-decahydropyrrolo[1,2-a][1,5]diazocin-5-yl]carbamoyl}-1H-indol-5-yl)difluoromethyl]phosphonic acid] | 1 to 10 | > 3 | 0.3 to 3 | > 3 |
|  |  |  |  | CC(=O)N1CC[C@H]2CC[C@@H](C(=O)Nc3ccc(-c4ccc(NC(=O)CCCCCC#Cc5cccc6c5CN(C5CCC(=O)NC5=O)C6=O)cc4)cc3)N2C(=O)[C@@H](NC(=O)c2cc3cc(C(F)(F)P(=O)(O)O)ccc3[nH]2)C1 (stereo partly drawn) [Compound 3, ((2-(((5S,8S,10aR)-3-acetyl-8-((4′-(8-(2-(2,6-dioxopiperidin-3-yl)-1-oxoisoindolin-4-yl)oct-7-ynamido)-[1,1′-biphenyl]-4-yl)carbamoyl)-6-oxodecahydropyrrolo[1,2-a][1,5]diazocin-5-yl)carbamoyl)-1H-indol-5-yl)difluoromethyl)phosphonic acid] | 0.1 to 1 | > 3 | 0.3 to 3 | > 3 |
| < 0.1 | > 3 | 3 to 30 | > 3 | O=C1CCC(N2Cc3c(C#CCCCCCC(=O)N4CC[C@H]5CC[C@@H](C(=O)N6CC(c7cccnc7)C6)N5C(=O)[C@@H](NC(=O)c5cc6cc(C(F)(F)P(=O)(O)O)ccc6s5)C4)cccc3C2=O)C(=O)N1 (stereo partly drawn) [Compound 5, ((2-(((5S,8S,10aR)-3-(8-(2-(2,6-dioxopiperidin-3-yl)-1-oxoisoindolin-4-yl)oct-7-ynoyl)-6-oxo-8-(3-(pyridin-3-yl)azetidine-1-carbonyl)decahydropyrrolo[1,2-a][1,5]diazocin-5-yl)carbamoyl)benzo[b]thiophen-5-yl)difluoromethyl)phosphonic acid] |  |  |  |  |
| 1 to 10 | 1 to 3 | < 0.3 | > 3 | N#CC1CN(C(=O)C2CCC3CCN(C(=O)CCCCCC#Cc4cccc5c4CN(C4CCC(=O)NC4=O)C5=O)CC(NC(=O)c4cc5cc(C(F)(F)P(=O)(O)O)ccc5s4)C(=O)N32)CC1c1ccccc1 [Compound 6, ((2-(((5S,8S,10aR)-8-((rel-3S,4R)-3-cyano-4-phenylpyrrolidine-1-carbonyl)-3-(8-(2-(2,6-dioxopiperidin-3-yl)-1-oxoisoindolin-4-yl)oct-7-ynoyl)-6-oxodecahydropyrrolo[1,2-a][1,5]diazocin-5-yl)carbamoyl)benzo[b]thiophen-5-yl)difluoromethyl)phosphonic acid] |  |  |  |  |
|  |  |  |  | Cc1ccc2[nH]nc(C(=O)N3CC[C@H]4CC[C@@H](C(=O)NCCCCCCCCC(=O)N[C@H](C(=O)N5C[C@H](O)C[C@H]5C(=O)N[C@@H](C)c5ccc(-c6scnc6C)cc5)C(C)(C)C)N4C(=O)[C@@H](NC(=O)c4ccc5ccc(C(F)(F)P(=O)(O)O)cc5c4)C3)c2c1 [Compound 7] | 1 to 10 | > 3 | < 0.3 | > 3 |
|  |  |  |  | Cc1ccc2[nH]nc(C(=O)N3CC[C@H]4CC[C@@H](C(=O)NCCCCCCC#Cc5cccc6c5CN(C5CCC(=O)NC5=O)C6=O)N4C(=O)[C@@H](NC(=O)c4ccc5ccc(C(F)(F)P(=O)(O)O)cc5c4)C3)c2c1 (stereo partly drawn) [Compound 9, ((7-(((5S,8S,10aR)-8-((8-(2-(2,6-dioxopiperidin-3-yl)-1-oxoisoindolin-4-yl)oct-7-yn-1-yl)carbamoyl)-3-(5-methyl-1H-indazole-3-carbonyl)-6-oxodecahydropyrrolo[1,2-a][1,5]diazocin-5-yl)carbamoyl)naphthalen-2-yl)difluoromethyl)phosphonic acid] | 1 to 10 | 1 to 3 | < 0.3 | > 3 |
| < 0.1 |  | 3 to 30 | 0.1 to 1 | CN(C)c1ccncc1C1CN(C(=O)[C@@H]2CC[C@@H]3CCN(C(=O)CCCCCC#Cc4cccc5c4CN(C4CCC(=O)NC4=O)C5=O)C[C@H](NC(=O)c4cc5cc(C(F)(F)P(=O)(O)O)ccc5s4)C(=O)N32)C1 (stereo partly drawn) [Compound 39, ((2-(((5S,8S,10aR)-8-(3-(4-(dimethylamino)pyridin-3-yl)azetidine-1-carbonyl)-3-(8-(2-(2,6-dioxopiperidin-3-yl)-1-oxoisoindolin-4-yl)oct-7-ynoyl)-6-oxodecahydropyrrolo[1,2-a][1,5]diazocin-5-yl)carbamoyl)benzo[b]thiophen-5-yl)difluoromethyl)phosphonic acid] |  |  |  |  |
